Experimental data published in ChEMBL document CHEMBL1152274, “Discovery of potent and selective agonists for the free fatty acid receptor 1 (FFA(1)/GPR40), a potential target for the treatment of type II diabetes” (J Med Chem, 2008).
Calls of active or inactive are those of the source. The calls are words filed in the database; no cut-off is given here.

Columns and labels:
[1] = molecular target: T1, Free fatty acid receptor 1 (Homo sapiens, UniProt O14842); experiment: Agonist activity at human FFA1 expressed in human 1321N1 cells by calcium fluorescence assay relative to 3-(4-(benzyloxy)phenyl)propionic acid; type: functional, cell-based
[2] = molecular target: T2, Free fatty acid receptor 3 (Homo sapiens) (UniProt O14843); experiment: Agonist activity at FFA3; type: functional
T2 sequence (whole entry): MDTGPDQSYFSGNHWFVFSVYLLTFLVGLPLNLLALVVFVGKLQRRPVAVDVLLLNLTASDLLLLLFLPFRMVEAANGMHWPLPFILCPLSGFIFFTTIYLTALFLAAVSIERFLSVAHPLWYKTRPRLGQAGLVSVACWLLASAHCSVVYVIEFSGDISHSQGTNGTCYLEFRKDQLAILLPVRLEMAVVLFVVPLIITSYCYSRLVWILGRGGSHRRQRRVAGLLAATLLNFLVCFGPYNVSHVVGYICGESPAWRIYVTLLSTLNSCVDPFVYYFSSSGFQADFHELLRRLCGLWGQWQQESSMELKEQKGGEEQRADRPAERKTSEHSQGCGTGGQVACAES

[3] = molecular target: T3, Free fatty acid receptor 2 (Homo sapiens) (UniProt O15552); experiment: Agonist activity at FFA2; type: functional
T3 sequence (whole entry): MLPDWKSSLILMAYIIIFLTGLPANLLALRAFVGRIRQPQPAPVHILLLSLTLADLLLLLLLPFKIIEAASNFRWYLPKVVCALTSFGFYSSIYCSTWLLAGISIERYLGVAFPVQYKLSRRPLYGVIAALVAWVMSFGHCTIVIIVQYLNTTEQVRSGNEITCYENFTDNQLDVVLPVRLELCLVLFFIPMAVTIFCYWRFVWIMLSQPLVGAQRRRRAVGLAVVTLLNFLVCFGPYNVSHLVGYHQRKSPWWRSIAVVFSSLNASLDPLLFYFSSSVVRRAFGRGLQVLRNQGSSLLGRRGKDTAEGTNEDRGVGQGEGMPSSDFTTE

[4] = molecular target: T1, Free fatty acid receptor 1; experiment: Agonist activity at human FFA1 expressed in human 1321N1 cells by calcium fluorescence assay; type: functional, cell-based
[5] = system: Pancreatic islet; experiment: Induction of glucose-stimulated insulin secretion in pancreatic islets cells isolated from wild type mouse; type: functional, cell-based
[6] = system: INS-1E; experiment: Enhancement of insulin secretion in rat INS-1E cells in presence of 12 mM glucose; type: functional, cell-based
[7] = system: INS-1E; experiment: Reduction of basal insulin secretion in rat INS-1E cells in presence of 2.8 mM glucose; type: functional, cell-based
[8] = system: Pancreatic islet; experiment: Induction of glucose-stimulated insulin secretion in pancreatic islets cells isolated from FFA1-deficient mouse; type: functional, cell-based
[9] = system: INS-1E; experiment: Enhancement of glucose-stimulated insulin secretion in rat INS-1E cells at 3 uM; type: functional, cell-based
[10] = system: INS-1E; experiment: Enhancement of palmitate-stimulated insulin secretion in rat INS-1E cells at 10 uM; type: functional, cell-based
[11] = molecular target: T1, Free fatty acid receptor 1; experiment: Agonist activity at human FFA1 expressed in human 1321N1 cells up to 31.6 uM by calcium fluorescence assay; type: functional, cell-based

T1 sequence (O14842 whole entry): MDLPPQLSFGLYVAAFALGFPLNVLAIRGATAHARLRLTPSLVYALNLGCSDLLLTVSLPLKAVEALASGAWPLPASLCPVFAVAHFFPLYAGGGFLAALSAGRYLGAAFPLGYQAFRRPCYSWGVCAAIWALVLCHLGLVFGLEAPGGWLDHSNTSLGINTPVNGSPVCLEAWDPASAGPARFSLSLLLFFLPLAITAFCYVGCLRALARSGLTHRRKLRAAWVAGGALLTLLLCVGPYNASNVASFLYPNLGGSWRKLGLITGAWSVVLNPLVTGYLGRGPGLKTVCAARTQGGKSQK

| Activity [1] [%] | Activity [2] | Activity [3] | EC50 ([4]; read-out: pEC50 (converted)) [µM] | Compound | other results |
| --- | --- | --- | --- | --- | --- |
| 98 | inactive | inactive |  | O=C(O)CCc1ccc(C#Cc2cccc(C(F)(F)F)c2)cc1 |  |
| 92 | inactive | inactive |  | N#Cc1cccc(C#Cc2ccc(CCC(=O)O)cc2)c1 |  |
| 108 | inactive | inactive |  | Cc1cccc(C#Cc2ccc(CCC(=O)O)cc2)c1C |  |
| 99 | inactive | inactive | 0.107 | Cc1ccc(C#Cc2ccc(CCC(=O)O)cc2)cc1 |  |
| 105 | inactive | inactive |  | Cc1ccccc1C#Cc1ccc(CCC(=O)O)cc1 | Activity [5]: inactive; EC50 ([4]; read-out: EC50): 0.032 µM; Activity [6]: Active; Activity [7]: Active; Activity [8]: inactive; Activity [9]: Active; Activity [10]: Active |
|  | inactive | inactive |  | O=C(O)COc1ccc(C#Cc2ccc(O)cc2)cc1 | Activity [11]: inactive |
| 109 | inactive | inactive |  | Cc1cccc(C#Cc2ccc(CCC(=O)O)cc2)c1 |  |
| 94 | inactive | inactive | 0.0589 | O=C(O)CCc1ccc(C#Cc2cccc([N+](=O)[O-])c2)cc1 |  |
| 94 | inactive | inactive |  | O=Cc1cccc(C#Cc2ccc(CCC(=O)O)cc2)c1 |  |
| 106 | inactive | inactive |  | O=C(O)CCc1ccc(C#Cc2ccccc2)cc1 | EC50 ([4]; read-out: EC50): 0.096 µM |
| 103 | inactive | inactive |  | O=C(O)CCc1ccc(C#Cc2cccc(CO)c2)cc1 |  |
| 96 | inactive | inactive |  | Nc1cccc(C#Cc2ccc(CCC(=O)O)cc2)c1 |  |
| 100 | inactive | inactive |  | C#Cc1cccc(C#Cc2ccc(CCC(=O)O)cc2)c1 |  |
| 100 | inactive | inactive | 0.0851 | O=C(O)CCc1ccc(C#Cc2cccc3ccccc23)cc1 |  |
| 101 | inactive | inactive |  | Cc1cc(C)cc(C#Cc2ccc(CCC(=O)O)cc2)c1 |  |
|  | inactive | inactive |  | Cc1ccc(C#Cc2ccc(OCC(=O)O)cc2)cc1 | Activity [11]: inactive |
| 113 | inactive | inactive | 0.513 | Cc1cccc(C#Cc2ccc(OCC(=O)O)cc2)c1 |  |
| 86 | inactive | inactive | 5.62 | O=C(O)COc1ccc(C#Cc2cccc(O)c2)cc1 |  |
| 104 | inactive | inactive | 1.26 | O=C(O)COc1ccc(C#Cc2ccccc2)cc1 |  |
|  | inactive | inactive |  | O=C(O)COc1ccc(C#Cc2ccc(CO)cc2)cc1 | Activity [11]: inactive |
| 96 | inactive | inactive | 3.72 | Cc1ccccc1C#Cc1ccc(OCC(=O)O)cc1 |  |
